Peptide text beside a SMILES is read from it.
Columns and labels:
[1] = test system: Escherichia coli; test: animal or person; assay type: in vivo; settings: vs model control group
Experimental: (§1) Animals in the blank administration group were not modeled, and inhaled a high-concentration polypeptide aerosol (0.48 mg/L) through nose and mouth every day. Animals in the blank control group were instilled with a 0.5 mL 0.9% sodium chloride injection through trachea. After the remaining groups were slightly anesthetized with ether, the model control group, the erythromycin group, the budesonide group, the low-dose polypeptide treatment group, and the high-dose polypeptide treatment group were instilled with a 1×10^8 CFU/mL mixed bacteria solution of Staphylococcus aureus, Streptococcus pneumoniae, and Escherichia coli through trachea, 0.5 mL/rat, respectively, and the blank control group was instilled with a 0.9% sodium chloride injection of a same volume.
(§2) A specific modeling method was as follows: a rat was anesthetized by ether inhalation and lied on an anatomical plate at an angle of 30-45°, trachea of the rat was exposed under an otoscope, a long puncture needle was connected to a 1 mL syringe and inserted into the trachea, each rat was injected with 0.5 mL of mixed bacteria, the puncture needle was pulled out after the injection, the rat was still kept at the original tilt position for about 10 min, and the bacteria solution flowed into bronchus and alveoli due to gravity to cause infection, so as to induce a rat pneumonia model.
(§3) Each group was administrated for the first time at 2 h after modeling. After the experiment begun, 7.16 mg/mL and 71.6 mg/mL peptide solutions were atomized into aerosol particles with target concentrations of 0.07 and 0.48 mg/L every day, and the animals in the low-dose peptide treatment group and the high-dose peptide treatment group (0.54 mg/kg and 3.7 mg/kg, corresponding to drug concentrations 0.07 and 0.48 mg/L respectively) inhaled the aerosol particles with corresponding concentrations through mouth and nose respectively for 7 consecutive days, 10 min/time, 3 times a day; the blank administration group (cumulative dose 22.2 mg/kg, corresponding to a drug concentration 0.48 mg/L) inhaled 0.48 mg/L peptide aerosol particles through mouth and nose every day for 7 consecutive days, 20 min/time, 3 times a day; the blank control group and the model control group inhaled a 0.9% sodium chloride solution for the same time according to the same method; the erythromycin group and the budesonide group were administrated with a 5 mg/mL erythromycin solution and a 0.05 mg/mL budesonide suspension respectively for the same time according to the same method; and body weight of each group was tested every day.
(§4) Except the blank administration group, half animals of the remaining groups were randomly selected for lung function test, gross anatomy examination, and pathological test on D4 day, and lungs of 3 animals in each group were selected for bacteria culture and counting; and on D8 day, the remaining animals were subjected to lung function test, gross anatomy examination, and pathological test, and lungs of 3 animals in each group were selected for bacteria culture and counting (the blank control group and the blank administration group were not examined).
(§5) Experimental steps of bacteria culture: except the blank administration group, six animals were randomly selected from each of the remaining groups (three animals were randomly selected from the first and last anatomies), left middle lobe lung tissues were taken, washed with 0.9% sodium chloride injection, added with double weight of 0.9% sodium chloride injection, and ground into homogenate, the homogenate was inoculated into a meat extract agar medium and cultured at 37° C. for 16 to 18 h, bacteria were isolated, and each isolated bacteria suspension was diluted to 10^−1, 10^−2, 10^−3, 10^−4, 10^−5, 10^−6, 10^−7 and 10^−8 according to 10 times gradient, namely, 9 mL normal saline plus 1 mL bacteria suspension was 10^−1, and so on. […]

[2] = test system: Staphylococcus aureus; test: animal or person; assay type: in vivo; settings: vs model control group
Experimental: as §1, §2, §3, §4, §5

[3] = test system: Streptococcus pneumoniae; test: animal or person; assay type: in vivo; settings: vs model control group
Experimental: as §1, §2, §3, §4, §5

[4] = Body weight of pneumonia model rats during the experiment; assay type: in vivo, SD rats; settings: FIG. 4
Experimental: as §3

[5] = test system: SD rats; assay type: in vivo; set-up: MV: minute ventilation: unit not given here
Experimental: as §1, §3, §4
Experimental steps of gross anatomical examination and pathological test: the rats to be tested were anesthetized by intraperitoneal injection of 20% ethyl carbamate (dose 1000 mg/kg), and lung functions of the rats in each group were first tested with a lung function tester. Blood was collected from a ventral aorta, partial pressure of oxygen (PaO2) and partial pressure of carbon dioxide (PaCO2) in the blood of the rats were measured by using a blood gas analyzer, then left lower lobe lung tissues were taken, fixed in formalin, embedded, sectioned, and stained with HE, and pathological changes were observed under the light microscope.

[6] = D4, high-dose 3.7 mg/kg (0.48 mg/L aerosol) inhaled
[7] = D4, low-dose 0.54 mg/kg (0.07 mg/L aerosol) inhaled
[8] = D8, high-dose 3.7 mg/kg (0.48 mg/L aerosol) inhaled
[9] = D8, low-dose 0.54 mg/kg (0.07 mg/L aerosol) inhaled
[10] = D8, not modeled rats (blank administration group), cumulative dose 22.2 mg/kg (0.48 mg/L aerosol) inhaled 7 days

For `CSCC[C@H](N)C(=O)NCC(=O)N[C@@H](CCCNC(=N)N)C(=O)N[C@@H](Cc1ccccc1)C(=O)N[C@@H](CCCCN)C(=O)N[C@@H](CCCNC(=N)N)C(=O)N[C@@H](Cc1ccccc1)C(=O)N[C@@H](CCCNC(=N)N)C(=O)N[C@@H](CCCCN)C(=O)N[C@@H](CCCCN)C(=O)N[C@@H](Cc1ccccc1)C(=O)N[C@@H](CCCCN)C(=O)N[C@@H](CCCCN)C(=O)N[C@@H](CC(C)C)C(=O)N[C@@H](Cc1ccccc1)C(=O)N[C@@H](CCCCN)C(=O)N[C@@H](CCCCN)C(=O)N[C@@H](CC(C)C)C(=O)N[C@@H](CO)C(=O)O` [polypeptide] (H-MGRFKRFRKKFKKLFKKLS-OH), the “Inhibition rate of escherichia coli” value [1, 6] was 92.16%, the “Inhibition rate of escherichia coli” value [1, 7] was 71.19% and the “Inhibition rate of escherichia coli” value [1, 8] was 96.57%. For the same compound, the “Inhibition rate of escherichia coli” value [1, 9] was 85.77%, the “Inhibition rate of staphylococcus aureus” value [2, 6] was 90.99% and the “Inhibition rate of staphylococcus aureus” value [2, 7] was 80.56%. For the same compound, the “Inhibition rate of staphylococcus aureus” value [2, 8] was 97.43%, the “Inhibition rate of staphylococcus aureus” value [2, 9] was 96.75% and the “Inhibition rate of streptococcus pneumoniae” value [3, 6] was 90.49%. The “Inhibition rate of streptococcus pneumoniae” value [3, 7] was 84.14%, the “Inhibition rate of streptococcus pneumoniae” value [3, 8] was 98.74% and the “Inhibition rate of streptococcus pneumoniae” value [3, 9] was 94.95%. The “body weight compared with the model control group” value ([4]; high-dose 3.7 mg/kg (0.48 mg/L aerosol) inhaled) was “no significant difference”, the “body weight compared with the model control group” value ([4]; low-dose 0.54 mg/kg (0.07 mg/L aerosol) inhaled) was “no significant difference” and the “FEV200 (forced expiratory volume)” value [5, 10] was 3.77 ± 1.07 mL. The FEV200/FVC [5, 10] was 93.81 ± 3.03%, the “FVC: forced vital capacity” value [5, 10] was 4.01 ± 1.08 mL and the “MV: minute ventilation” value [5, 10] was 0.20 ± 0.04. The “PaCO2: partial pressure of carbon dioxide” value [5, 10] was 33.09 ± 8.33 mmHg, the “PaO2: partial pressure of oxygen” value [5, 10] was 82.77 ± 11.87 mmHg and the “VT: tidal volume” value [5, 10] was 1.76 ± 0.25 mL. The “arterial blood pH” value [5, 10] was 7.46 ± 0.04, the “f: respiratory rate” value [5, 10] was 116 ± 15 time/min and the Lung tissue microscopy ([5]; D8, not modeled rats (blank administration group), cumulative dose 22.2 mg/kg aerosol inhaled) was “no obvious abnormality”. For the same compound, the “lung function indexes, and WBC, Neu, TNF-α, and IL-6 in alveolar lavage fluid compared with the blank control group” value ([5]; SD rats inhaled 22.2 mg/kg polypeptide solution through nose and mouth for 7 consecutive days) was “no significant difference” and the “body weight compared with the blank control group” value ([5]; not modeled rats (blank administration group), cumulative dose 22.2 mg/kg, FIG. 4) was “no significant difference”.

— US20230330178A1, “USE OF POLYPEPTIDE IN DRUG FOR PREVENTING AND TREATING PNEUMONIA” (priority 2020, published 2023)
